Test results reported in patent US12479886B2, “Inhibitors of IL-15 and their use in treating autoimmune/inflammatory disorders” (University of Houston System, priority 2019, dated 2025).
Bridge positions count the residues as written; N and C are the ends. Square brackets hold non-standard residues; d marks the D form. Peptide text beside a SMILES is read from it. I, II: the chains in the order shown. N(4-MeOBn)Gly = COc1ccc(CNCC(=O)O)cc1; Nleu = CC(C)CNCC(=O)O; Nlys = NCCCCNCC(=O)O; Nme = COCCNCC(=O)O

What was measured:
IL-15 = assay: CTLL-2 proliferation assay (WST-1); format: cell-based, murine
Experimental: (§1) FIGS. 7A-C. IFRA3Q1 inhibits the IL-15 activity. To determine if IFRA3 and its derivatives can regulate the function of IL-15, the inventors performed CTLL-2 proliferation assay. The proliferation of murine T cell line CTLL-2 depends on the presence and activity of IL-15. CTLL-2 cells were seeded into 96-well plates and treated with IL-15 in the presence or absence of IFRA3D1, IFRA3T1, or IFRA3Q1 at indicated concentrations for 72 hours. CTLL-2 cell proliferation was measured by WST-1 assay.
as §1, with “To determine” for “FIGS. 7A-C. IFRA3Q1 inhibits the IL-15 activity. To determine”, “WST-1 assay. […] IFRA3 and its derivatives had no effects on cell proliferation by themselves.” for “WST-1 assay.”

IL-15 Rα = target: T1, IL-15 Rα (Homo sapiens, UniProt Q13261); assay: on-bead two-color (OBTC) screening and validation with IL-15Rα expressing and non-expressing HeLa cells; format: cell-based
T1 construct: Cell lysates from IL-15RA positive HeLa cells (expressing IL15RA) or IL-15RA negative HeLa cells (transfected with IL15RA siRNA to knock down IL15RA); endogenous in cells; host or cells: HeLa
Experimental: FIGS. 1A-C. Discovery of the IL-15 receptor a subunit-binding compound IFRA3 through OBTC screening of a peptoid library. To identify compounds that can bind to IL-15 receptor, the inventors performed an on-bead two-color (OBTC) screening experiment. HeLa cells expressing IL-15 Rα were stained with red Qdot® […] nanocrystals and HeLa cells not expressing IL-15 Rα were stained with green Qdot® […] nanocrystals. One million green cells and one million red cells were mixed and incubated for 1 hour with 50,000 peptoid compound library beads containing one-compound on one bead at 23° C. Beads that bind to only red cells but not green cells were isolated under fluorescent microscope and the compound attached to the bead was identified by mass spectrometry. (FIG. 1A) Illustration of the OBTC screening mechanism. (FIG. 1B) One example of the bead that binds only the red cells. (FIG. 1C) The chemical structure of IFRA3, one of the three hits discovered in this screening.
FIG. 3. Validation of the binding of IFRA3 to IL-15 receptor a subunit using OBTC. The compound IFRA3 was resynthesized on the beads and were incubated with IL-15 RA expressing HeLa cells (red stained) and IL-15RA negative HeLa cells (green stained) individually as well as 1:1 mixture of red and green cells. […]

[1] = target: T2, IL-15 receptor a (IL15RA) (Homo sapiens, UniProt Q13261); assay: in vitro pull-down assay with peptoid-conjugated beads and HeLa cell lysates, Coomassie staining and western blot; format: binding; conditions: beads conjugated with compound, 4° C. overnight; band identity confirmed by western blot
T2 construct: Cell lysates from IL-15RA positive HeLa cells (expressing IL15RA) or IL-15RA negative HeLa cells (transfected with IL15RA siRNA to knock down IL15RA); endogenous in cells; host or cells: HeLa
Experimental: FIGS. 2A-B. Confirmation of the binding of IFRA3 to IL-15 receptor a subunit. […] Cell lysates from IL-15RA positive HeLa cells (expressing IL15RA) or IL-15RA negative HeLa cells (transfected with IL15RA siRNA to knock down IL15RA) were incubated with beads conjugated with IFRA1, or IFRA2, or IFRA3 at 4° C. overnight. The beads were then washed with RIPA buffer for 3 times, and the binding proteins were eluted with 1% SDS. The yielded lysates were then applied onto 12% SDS-PAGE gel and subjected to Coomassie blue staining. (FIG. 2B) Protein in the gel was transferred to membrane and identified by western blotting analysis with antibody against IL-15RA.
Cell lysates from IL-15RA positive HeLa cells (expressing IL15RA) or IL-15RA negative HeLa cells (transfected with IL15RA siRNA to knock down IL15RA) were incubated with beads conjugated with IFRA1, or IFRA2, or IFRA3 at 4° C. overnight. The beads were then washed with RIPA buffer for 3 times, and the binding proteins were eluted with 1% SDS. The yielded lysates were then applied onto 12% SDS-PAGE gel and subjected to Coomassie blue staining. Protein in the gel was transferred to membrane and identified by western blotting analysis with antibody against IL-15RA. […] Western blot results confirmed the identity of the protein band as IL15RA. Thus, the data support that IFRA3 can bind to IL15RA.

T1 sequence (Q13261 31-267): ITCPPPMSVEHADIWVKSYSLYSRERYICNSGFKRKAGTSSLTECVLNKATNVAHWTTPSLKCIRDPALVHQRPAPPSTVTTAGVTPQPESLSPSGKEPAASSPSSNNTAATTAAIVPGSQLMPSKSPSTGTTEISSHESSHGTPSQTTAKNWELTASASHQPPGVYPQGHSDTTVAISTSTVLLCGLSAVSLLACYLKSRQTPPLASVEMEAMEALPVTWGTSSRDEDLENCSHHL
T2 sequence (Q13261 31-267): as above

SMILES | inhibition of IL-15-stimulated proliferation of CTLL-2 cells (IL-15; with IL-15, 72 hours, WST-1) | effect on cell proliferation by themselves (IL-15; CTLL-2 cells, compound alone without IL-15) | binding of cells to beads with resynthesized compound (OBTC validation) (IL-15 Rα; IL-15RA expressing (red) and negative (green) HeLa cells, individually and as 1:1 mixture) | binding to IL-15 receptor subunit a in OBTC screen (hit) (IL-15 Rα; peptoid library beads, red IL-15Rα+ and green IL-15Rα- HeLa cells, 1 hour, 23° C.) | pull-down of IL15RA from cell lysates [1]
COCCN(CC(=O)NC(CCCCN)C(=O)NC(CCSC)C(=O)NCCCCC(NC(=O)C(CCCCNC(=O)C(CCSC)NC(=O)C(CCCCN)NC(=O)CN(CCOC)C(=O)CN(CCCCN)C(=O)CN(CCCCN)C(=O)CN(CCOC)C(=O)CN(Cc1ccc(OC)cc1)C(=O)CNCC(C)C)NC(=O)C(CCSC)NC(=O)C(CCCCN)NC(=O)CN(CCOC)C(=O)CN(CCCCN)C(=O)CN(CCCCN)C(=O)CN(CCOC)C(=O)CN(Cc1ccc(OC)cc1)C(=O)CNCC(C)C)C(N)=O)C(=O)CN(CCCCN)C(=O)CN(CCCCN)C(=O)CN(CCOC)C(=O)CN(Cc1ccc(OC)cc1)C(=O)CNCC(C)C (centres unmarked) [IFRA3T1] (I: H-[Nleu][N(4-MeOBn)Gly][Nme][Nlys][Nlys][Nme]KMKK-NH2 / II: H-[Nleu][N(4-MeOBn)Gly][Nme][Nlys][Nlys][Nme]KM / III: H-[Nleu][N(4-MeOBn)Gly][Nme][Nlys][Nlys][Nme]KM; amide I:9-II:C, I:10-III:C; configuration not given here) | less effects |  |  |  | 
COCCN(CC(=O)NC(CCCCN)C(=O)NC(CCSC)C(N)=O)C(=O)CN(CCCCN)C(=O)CN(CCCCN)C(=O)CN(CCOC)C(=O)CN(Cc1ccc(OC)cc1)C(=O)CNCC(C)C (centres unmarked) [IFRA3] (H-[Nleu][N(4-MeOBn)Gly][Nme][Nlys][Nlys][Nme]KM-NH2; configuration not given here) |  | no effects | only red cells bind to the beads, and the green cells do not bind | binds to the IL-15 receptor subunit a | can pull down a protein band corresponding to the size of IL15RA
